{
  "source": "patent US6833353B1",
  "about": "“Use of immunosuppressants for MMP mediated diseases” (Fujisawa Pharmaceutical Co., Ltd., priority 1998, dated 2004)",
  "assay_type_in_all_cases": "in vivo, Lewis rats",
  "key": {"cartilage degradation": {"tested_on": "cartilage degradation", "assay": "Cartilage degradation in cotton-wrapped cartilage implant model (hydroxyproline content of implanted cartilage)"}, "collagenase": {"tested_on": "collagenase", "assay": "Collagenolytic activity in granulomatous tissue extract, implant model", "conditions": "day 14", "experimental": "(§1) Bone and excess tissue overlying the cartilage was removed under sterile conditions, in an airflow hood. The septum was washed in 70% ethanol before the cartilage was cut to a weight of 40×2mg. The cartilages were wrapped tightly in sterile cotton squares and soaked in 0.1 ml of a 10 mg/ml homogenized suspension of heat-killed Mycobacterium tuberculosis H37RA (Difco) in saline. Eight cartilages were stored in −20° C., these were to measure the levels of collagen in non-implanted cartilages.\n(§2) Eight weeks old female Lewis rats were anaesthetized using halothane. The stomach area was shaved and swabbed with ethanol. […]\n(§3) The granulomatous tissues were homogenized in 1 ml of 50 mM Tris, pH 7.5 containing 5 mM CaCl2, 0.1% Triton X-100 and 0.02% NaN3) After centrifugation of the extract at 15000 rpm for 10 min to remove debris, the supernatant was assayed for collagenolytic activity, gelatinolytic activity, tumor necrosis factor-α (TNF-α) level and Interferon-γ (IFN-γ) level. Collagenolytic and gelatinolytic activities in the extracts were measured using commercial assay kits (YAGAI, Japan). Cytokines levels were also measured using ELISA kits (Cosmo Bio, Japan). The protein contents in the extracts was determined using the method of Lowry.\n(§4) Data is expressed as mean±SEM. The significance of differences was determined by Dunnett's multiple comparison test (*p<0.05, **p<0.01)."}, "gelatinase": {"tested_on": "gelatinase", "assay": "Gelatinolytic activity in granulomatous tissue extract, implant model", "conditions": "day 14", "experimental": "as §1, §2, §3, §4"}, "TNF-α": {"tested_on": "TNF-α", "assay": "TNF-α level in granulomatous tissue extract (ELISA), implant model", "conditions": "day 14", "experimental": "as §1, §2, §3, §4"}, "IFN-γ": {"tested_on": "IFN-γ", "assay": "IFN-γ level in granulomatous tissue extract (ELISA), implant model", "conditions": "day 14", "experimental": "as §1, §2, §3, §4"}},
  "note": "Marks after values point to notes of the source that are not given here.",
  "data": [
    {"smiles": "C=CC[C@@H]1/C=C(\\C)C[C@H](C)C[C@H](OC)[C@H]2O[C@@](O)(C(=O)C(=O)N3CCCC[C@H]3C(=O)O[C@H](/C(C)=C/[C@@H]3CC[C@@H](O)[C@H](OC)C3)[C@H](C)[C@@H](O)CC1=O)[C@H](C)C[C@@H]2OC", "note": "[FK506, 17-allyl-1,14-dihydroxy-12-[2-(4-hydroxy-3-methoxycyclohexyl)-1-methylvinyl]-23,25-dimethoxy-13,19,21,27-tetramethyl-11,28-dioxa-4-azatricyclo[22.3.1.0^4,9] octacos-18-ene-2,3,10,16-tetraone]", "values": [
      {"measurement": "Recovery (%) of Hydroxyproline", "setting": "cartilage degradation; 3.2 mg/kg po once daily, 14 days, implanted bovine nasal cartilage, rat", "result": "61.9** %"},
      {"measurement": "inhibition of the decrease of hydroxyproline contents in cartilage", "setting": "cartilage degradation; 3.2 mg/kg po, uid, rat implant model", "result": 62, "unit": "%"},
      {"measurement": "inhibition (%) collagenase", "setting": "collagenase; 1.0 mg/kg po once daily", "result": 7.7, "unit": "%"},
      {"measurement": "inhibition (%) collagenase", "setting": "collagenase; 3.2 mg/kg po once daily", "result": 29.8, "unit": "%"},
      {"measurement": "inhibition (%) gelatinase", "setting": "gelatinase; 1.0 mg/kg po once daily", "result": "67.9* %"},
      {"measurement": "inhibition (%) gelatinase", "setting": "gelatinase; 3.2 mg/kg po once daily", "result": "82.1** %"},
      {"measurement": "inhibition (%) TNF-α", "setting": "TNF-α; 1.0 mg/kg po once daily", "result": "43.9** %"},
      {"measurement": "inhibition (%) TNF-α", "setting": "TNF-α; 3.2 mg/kg po once daily", "result": "56.6** %"},
      {"measurement": "inhibition (%) IFN-γ", "setting": "IFN-γ; 1.0 mg/kg po once daily", "result": 58.1, "unit": "%"},
      {"measurement": "inhibition (%) IFN-γ", "setting": "IFN-γ; 3.2 mg/kg po once daily", "result": "73.4* %"}
    ]}
  ]
}
